Reference: the NIST ThermoML archive (doi:10.1007/s10765-012-1261-6)
Several values for one entry are separate records, joined by “and”; a condition that tells them apart may be missing. Equal values may be shown once.

Conditions: Closed cell (Static) method

O [water]
Conditions	vapor or sublimation pressure
249.29 K, Crystal	0.07045 kPa
249.35 K, Crystal	0.07242 kPa
250.11 K, Crystal	0.08146 kPa
252.96 K, Crystal	0.09665 kPa
253.02 K, Crystal	0.1036 kPa and 0.1016 kPa
253.59 K, Crystal	0.1049 kPa
257.86 K, Crystal	0.1607 kPa
258.04 K, Crystal	0.1642 kPa and 0.1567 kPa
258.05 K, Crystal	0.165 kPa
262.84 K, Crystal	0.2552 kPa
262.98 K, Crystal	0.2629 kPa and 0.2541 kPa
263 K, Crystal	0.2517 kPa
267.85 K, Crystal	0.4157 kPa
267.91 K, Crystal	0.4036 kPa
267.93 K, Crystal	0.392 kPa
267.99 K, Crystal	0.423 kPa
272.87 K, Liquid	0.6049 kPa
272.98 K, Liquid	0.6038 kPa
273.02 K, Liquid	0.6135 kPa
277.94 K, Liquid	0.8666 kPa
277.95 K, Liquid	0.8493 kPa
277.97 K, Liquid	0.8679 kPa
278.01 K, Liquid	0.8712 kPa
278.07 K, Liquid	0.8686 kPa
282.91 K, Liquid	1.211 kPa
282.94 K, Liquid	1.215 kPa
282.95 K, Liquid	1.197 kPa
283.03 K, Liquid	1.224 kPa
288 K, Liquid	1.687 kPa
292.84 K, Liquid	2.295 kPa
293.03 K, Liquid	2.307 kPa
293.1 K, Liquid	2.337 kPa
302.8 K, Liquid	4.162 kPa
303.07 K, Liquid	4.214 kPa and 4.238 kPa
303.1 K, Liquid	4.235 kPa
312.8 K, Liquid	7.248 kPa
313.11 K, Liquid	7.367 kPa
313.12 K, Liquid	7.372 kPa
313.16 K, Liquid	7.386 kPa
317 K, Liquid	9.084 kPa
322.82 K, Liquid	12.15 kPa
323.13 K, Liquid	12.33 kPa
323.14 K, Liquid	12.33 kPa
323.19 K, Liquid	12.34 kPa
328.15 K, Liquid	15.75 kPa
332.83 K, Liquid	19.63 kPa
333.18 K, Liquid	19.94 kPa and 19.95 kPa
333.24 K, Liquid	19.97 kPa
338.19 K, Liquid	25.06 kPa
342.81 K, Liquid	30.69 kPa
343.21 K, Liquid	31.24 kPa
343.22 K, Liquid	31.24 kPa
343.28 K, Liquid	31.27 kPa
348.23 K, Liquid	38.65 kPa
352.81 K, Liquid	46.65 kPa
353.23 K, Liquid	47.47 kPa
353.24 K, Liquid	47.46 kPa
353.31 K, Liquid	47.53 kPa
358.25 K, Liquid	57.93 kPa
362.79 K, Liquid	68.98 kPa
363.24 K, Liquid	70.36 kPa
363.26 K, Liquid	70.26 kPa
363.33 K, Liquid	70.34 kPa
368.27 K, Liquid	84.67 kPa
373.26 K, Liquid	101.68 kPa
373.28 K, Liquid	101.4 kPa
373.37 K, Liquid	102.01 kPa
